Experiments:
[1] = target: T1, recombinant QC enzyme (Homo sapiens, UniProt Q16769); test: Assay 2 - QC potency, fluorescent enzymatic assay (H-Gln-AMC, coupled pGAPase detection); assay type: biochemical; conditions: 1 hour at 37°C
T1 construct: bacterial expression of residues 33-361 of uniprot ID Q16769, fused to a His tag; His tag (cleaved yes); made in house
Description: After scale-up, expression and lysis, protein was purified by Ni-NTA IMAC, dialysed in the presence of Factor Xa, further purified by Ni-NTA reverse IMAC and finally filtrated for size on a Superdex 200 16/60 column. Final protein was concentrated using a spin concentrator at 10 kDa molecular weight cut-off and formulated in 150 mM NaCl, 50 mM Tris-HCl, 50% Glycerol, pH 8.0.
(§1) Pyroglutamylation was measured by conversion of glutamine-4-amino-7-methylcoumarine (H-Gln-AMC, Bachem) to pyroglutamyl-AMC, which is subsequently a specific substrate for pyroglutamylaminopeptidase (pGAPase, Qiagen), releasing free AMC which can be fluorescently detected. For a typical inhibition assay, 7.5 µL aliquots of threefold dilutions of test compound in 50 mM Tris pH8 buffer were plated in 384-well plates. 15 µL 20 µM h-Gln-AMC (diluted from a 40 mM stock dissolved in 25 mM HEPES using 50 mM Tris-HCl pH 8.0) was added to each well. Finally, 7.5 µL, 3 ng/µL recombinant QC enzyme was added and the reaction mixture was incubated for 1 hour at 37°C. A 5 minute incubation at 98°C was then performed to denature the QC enzyme and stop the reaction.
25 µL of the pyroglutamylation reaction mixture was transferred into an empty plate and to that, 25 µL of the pGAPase enzyme solution was added. Plates were then incubated for 25 minutes at room temperature before fluorescence readings were taken on an Envision2 plate reader with excitation set at 380 nm and emission at 450 nm.
Controls were taken along containing pyroglutamylated-AMC (Bachem, dissolved at 10 mM in DMSO) instead of H-Gln-AMC to control for pGAPase inhibition.
(§2) IC50 values are calculated using non-linear regression analysis with GraphPad Prism software.

[2] = target: T2, human isoQC (Homo sapiens, UniProt Q9NXS2); test: Assay 1 - isoQC potency, fluorescent enzymatic assay (H-Gln-AMC, coupled pGAPase detection); assay type: biochemical; conditions: recombinant isoQC, 1 hour at 37°C
T2 construct: The Golgi luminal, enzymatically active region of human isoQC (S53-L382; see, e.g., Huang et al., 2011); GST (with enterokinase site) (N, cleaved yes); made in house; host or cells: E. coli
Source text: The Golgi luminal, enzymatically active region of human isoQC (S53-L382; see, e.g., Huang et al., 2011) was obtained by expression in E. coli of an N-terminally GST Enterokinase and C-terminally 6xHis tagged construct in the pET41(+) vector and subsequent purification using Ni-NTA IMAC. Enterokinase digestion ensued, followed by another Ni-NTA IMAC purification, Superdex75 based size exclusion and finally a spin concentration using a 10 kDa molecular weight cutoff. The final protein is formulated in 50 mM Tris-HCl, 150 mM NaCl, 50% Glycerol, pH 7.8.
as §1, with “in 50mM” for “in 50 mM”, “µM hGln-AMC” for “µM h-Gln-AMC”, “Tris-HCl 25” for “Tris-HCl”, “recombinant isoQC” for “recombinant QC”, “the isoQC” for “the QC”
To detect the amount of pyroglutamyl-AMC formed, a 0.125 U/mL pGAPase enzyme diluted in 50 mM Tris-HCl pH 8.0 containing 10 mM dithiothreitol (DTT) solution was prepared. 25 µL of the pyroglutamylation reaction mixture was transferred into an empty plate and to that, 25 µL of the pGAPase enzyme solution was added. Plates were then incubated for 25 minutes at room temperature before fluorescence readings were taken on an Envision2 plate reader with excitation set at 380 nm and emission at 450 nm. DMSO concentrations during the assay never exceeded 1% and activities were compared to controls containing only the same amount of DMSO and no test compound. Controls were taken along containing pyroglutamylated-AMC (Bachem, dissolved at 10 mM in DMSO) instead of H-Gln-AMC to control for pGAPase inhibition.
as §2

[3] = test system: pyroglutamylated CD47; test: Assay 3 - cell-based potency assay (pyroglutamylation in live cells, total CD47/pE-CD47 dual staining, FACS); design: species or system human; conditions: IC50 of CC2C6 signal, KBM7 cells, 72 hours incubation
Description: Cells were spun for 4 minutes at 1500 rpm and washed once with PBS / 0.5% BSA. Cells were spun down again and the supernatant was removed and incubated in 100 uL antibody staining solution (PBS / 0.5% BSA / 0.1 µg/mL DAPI (4',6-diamidino-2-phenylindole, ThermoFisher Scientific) and a mixture of 1:500 FITC-conjugated anti-human CD47 clone 2D3, which recognizes total CD47 irrespective of its pyroglutamylation state, and 1:500 Alexa647-conjugated anti-human CD47 clone CC2C6, which specifically detects pyroglutamylated CD47) for 2 hours at 4°C. Next, the cells were spun down and washed twice with 2 x 150 µL PBS / 0.5% BSA to remove unbound antibody. Cells were again spun down and taken up in 300 µL FACS buffer before analysis on a Celesta FACS machine (BD Biosciences).
KBM7 cells (Kotecki et al., 1999) were infected with lentivirus produced by transfecting pSCNC-LentiCRISPR-QPCTL or pSCNC-LentiCRISPR-CD47 into HEK-293T cells according to standard protocols. After 24 hours incubation, cells were selected with puromycin (Invivogen, 1 µg/mL) for 48 hours. Cells were stained for total CD47 and pE-CD47 and QPCTL k.o. cells were sorted out as negative for pE-CD47, and CD47 k.o. cells as negative for total CD47, using a FACSAria III and FACS Diva software (BD Biosciences).
In order to test compounds for their effect on pyroglutamylation in live cells, 25000 KBM7 cells per well were seeded in a 96-well U-bottom plate in 150 µl IMDM / 10% FCS / 1% Pen / Strep medium and a 10-point 2-fold dilution range of test compounds. After 72 hours incubation at 37°C, 5% COz, cells were stained for total CD47 and pE-CD47 and analysed on a BD Celesta using FACS Diva software (BD Biosciences). Cells gated for DAPI negativity were recorded and the median fluorescence intensity (MFI) of each sample was transformed to linearly scale between the MFI's of wildtype and CD47 knockout cells (in case of the 2D3 antibody) and the wildtype and QPCTL knockout cells (in case of the CC2C6 antibody). ICso's were calculated by 3 parameter logistic regression of the CC2C6 signal vs. compound concentration, where the top of the sigmoidal curve was fixed at 1, using R and the drc package (http://www.r-project.org, https://cran.r-project.org/web/packages/drc/index.html).

T1 sequence (Q16769 33-361): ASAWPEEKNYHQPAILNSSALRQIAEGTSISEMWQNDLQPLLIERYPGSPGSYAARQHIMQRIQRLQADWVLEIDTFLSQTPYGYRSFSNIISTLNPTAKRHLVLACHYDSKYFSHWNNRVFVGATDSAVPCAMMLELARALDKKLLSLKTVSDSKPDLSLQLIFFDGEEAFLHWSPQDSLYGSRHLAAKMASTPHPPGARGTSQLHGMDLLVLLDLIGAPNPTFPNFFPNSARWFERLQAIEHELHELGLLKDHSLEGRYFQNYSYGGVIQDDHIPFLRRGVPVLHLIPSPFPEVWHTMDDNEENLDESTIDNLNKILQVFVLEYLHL
T2 sequence (Q9NXS2 53-382): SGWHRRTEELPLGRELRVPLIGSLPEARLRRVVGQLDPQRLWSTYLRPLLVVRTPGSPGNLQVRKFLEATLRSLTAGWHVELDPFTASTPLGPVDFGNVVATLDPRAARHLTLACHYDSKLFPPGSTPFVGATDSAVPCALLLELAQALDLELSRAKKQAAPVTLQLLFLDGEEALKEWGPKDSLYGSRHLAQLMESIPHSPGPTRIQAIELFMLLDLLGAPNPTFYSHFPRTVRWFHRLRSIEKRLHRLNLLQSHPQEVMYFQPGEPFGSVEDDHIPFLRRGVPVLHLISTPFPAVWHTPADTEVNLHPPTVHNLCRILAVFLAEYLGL

Compound | IC50 [1] [nM] | IC50 [2] [nM] | IC50 ([3]; Homo sapiens, KBM-7, 72 h) [nM] | IC50 [3] [nM]
O=C1OC[C@H](c2ccc(-c3cnn(C(F)(F)F)n3)cc2F)N1c1ccc2[nH]cnc2c1 [(6)] | 15.1 | 3 | – | –
O=C1OCC(c2cc(F)cc(C(F)(F)F)c2)N1c1ccc2[nH]cnc2c1 (racemic) [(17)-Rac, reference compound] | 1730 | 1200 | > 50000 | –
O=C1OCC(c2cc(F)cc(C(F)(F)F)c2)N1c1ccc2[nH]cnc2c1 (single isomer, unassigned) [(17)-ent1, reference compound] | > 10000 | 10900 | > 50000 | –
O=C1OCC(c2ccc(C3CCC(F)(F)CC3)cc2)N1c1ccc2[nH]cnc2c1 (single isomer, unassigned) [(19)-ent1, reference compound] | – | 1240 | – | > 12500
O=C1OC[C@H](c2ccc(-c3ccn(C(F)(F)F)n3)cc2F)N1c1ccc2[nH]cnc2c1 [(5)] | 34.7 | 7.7 | 659 | –
O=C1OC[C@H](c2ccc(-c3cnn(C(F)(F)F)c3)c(F)c2F)N1c1ccc2[nH]cnc2c1 [(2)] | 38.9 | 4 | 106 | –
O=C1OCC(c2ccc(C3CCC(F)(F)CC3)cc2)N1c1ccc2[nH]cnc2c1 (racemic) [(19)-Rac, reference compound] | – | 63.7 | 10400 | –
O=C1OC[C@H](c2ccc(-c3nc(C(F)(F)F)cs3)cc2F)N1c1ccc2[nH]cnc2c1 [(9)] | 36.1 | 9 | 622 | –
O=C1OC[C@H](c2ccc(-c3cnn(C4CC4(F)F)c3)cc2F)N1c1ccc2[nH]cnc2c1 (stereo partly drawn) [(14)] | 12.7 | 3.6 | – | –
O=C1OCC(c2ccc(N3CCCC3)cc2)N1c1ccc2[nH]cnc2c1 (racemic) [(18)-Rac, reference compound] | 49.1 | 48.4 | 8510 | –
O=C1OC[C@H](c2ccc(-c3cnn(CF)c3)cc2F)N1c1ccc2[nH]cnc2c1 [(13)] | 11.3 | 4 | 401 | –
O=C1OC[C@H](c2ccc(-c3ccc(C(F)(F)F)s3)cc2F)N1c1ccc2[nH]cnc2c1 [(8)] | 86 | 13.4 | 526 | –
O=C1OC[C@H](c2ccc(-c3noc(C(F)(F)F)n3)cc2F)N1c1ccc2[nH]cnc2c1 [(10)] | 48.2 | 12.6 | – | –
O=C1OC[C@H](c2ccc(-c3cc(C(F)(F)F)no3)cc2F)N1c1ccc2[nH]cnc2c1 [(11)] | 24.3 | 5.2 | 252 | –
O=C1OC[C@H](c2ccc(-c3cnn(CC(F)F)c3)cc2F)N1c1ccc2[nH]cnc2c1 [(15)] | 8 | 2.7 | 155 | –
O=C1OC[C@H](c2ccc(-c3ccc(C(F)(F)F)o3)cc2F)N1c1ccc2[nH]cnc2c1 [(7)] | 70.1 | 10 | 503 | –
O=C1OCC(c2ccc(N3CCCC3)cc2)N1c1ccc2[nH]cnc2c1 (single isomer, unassigned) [(18)-ent1, reference compound] | 2530 | 1170 | – | > 50000
O=C1OC[C@H](c2ccc(-c3cnn(C4CC(F)(F)C4)c3)cc2F)N1c1ccc2[nH]cnc2c1 [(16)] | 9.4 | 5.1 | – | –
O=C1OC[C@H](c2ccc(-c3cnn(C(F)F)c3)cc2F)N1c1ccc2[nH]cnc2c1 [(12)] | 7.5 | 3.3 | 157 | –

— patent publication EP4455142A1, “NOVEL INHIBITOR OF QPCTL AND/OR QC” (Scenic Immunology B.V., priority 2023, dated 2024)
